According to patent US11692167B2, “Chemically defined serum replacements for cell culture” (Montana State University, priority 2021, dated 2023):

Tests used:
[1] = spectrophotometric assay using phenolphthalein indicator to determine complexation efficiency of lipids with cyclodextrins; type: physicochemical; conditions: extrapolated from free phenolphthalein absorbance
Protocol: Solubilized lipids were evaluated by spectrophotometric assay using Phenolphthalein, which is known to occupy the complexing reagents used for five hydrophobic nutrients used in chemically defined mixes. Phenolphthalein is known to be displaced from the reagent when a hydrophobic moiety is complexed, so the concentration of occupied reagents was extrapolated from coloration indicating concentration of free phenolphthalein in solution when a known amount of solubilized nutrient was dosed with a known quantity of Phenolphthalein. […] Phenolphthalein is colored when free in solution at pH 8+. It readily complexes with cyclodextrins of all types and is colorless when complexed. It is preferentially displaced by more hydrophobic molecules, so when added to a known concentration of complexed lipids, the absorbance can determine how much free phenolphthalein is present, and therefore how many free cyclodextrins are present. Since the stoichiometry of mixing is 1:1, the concentration of cyclodextrins that are free to interact with Phenolphthalein logically equals the concentration of free lipid in solution.

HFF cells = assay: Design of Experiments two-factor interaction on HFF cells (cell numbers/mL); type: cell-based, human; conditions: culture for 5 days
Source text: Optimization of mixes is achieved using Design of Experiments (DoE) computer-based design and analysis protocols. Experiments are computer designed according to number of variables to test, and serial dilutions of those variables. Results are able to indicate two factor interactions. […] This enables the optimization of many interdependent nutrients using maxima and repeat application. […] Vertical axes reflect cell numbers/mL after culture for 5 days. Horizontal axes correspond to increasing concentration of indicated lipids.

free lipid concentration in solution relative to critical micelle concentration (literature level) [1]	Structure (SMILES)	two-factor interaction with PT (palmitate) on cell numbers/mL (HFF cells; FIG. 8A)	two-factor interaction with α linolenic acid (ALA) on cell numbers/mL (HFF cells; FIG. 8B)
greater than the literature level	CCCCCCCC/C=C\CCCCCCCC(=O)O [oleic acid]		
	CCCCCC/C=C\CCCCCCCC(=O)O [PA, palmitoleic acid]	agonistic relationship	antagonist relationship
